These results are taken from ChEMBL document CHEMBL4622849, “Discovery of ethyl ketone-based HDACs 1, 2, and 3 selective inhibitors for HIV latency reactivation” (Bioorg Med Chem Lett, 2020).

Usually AUC stands for concentration integrated over time. A higher AUC goes with more exposure. What is called Cmax is the maximum level reached in the sampled fluid or tissue. By bioavailability is commonly meant the share of a dose that reaches the circulation, judged against a reference dose that is usually intravenous. The low end stands for poor availability, the high end for good availability. One may read the half-life as the time in which the quantity being followed falls by half. As usually defined, the IC50 is the concentration at which inhibition is half-maximal. Low readings indicate greater potency, high ones weaker potency. A word on the EC50: it is the concentration giving half of the maximal effect. A high value points to lower potency in that assay.

Data set [1] is described as follows: AUC in Wistar Han rat at 5 mg/kg, po. In kind it is ADME, organism-based. The note with it: in vivo.
Data set [2] in a line: Cmax in Wistar Han rat at 5 mg/kg, po. In kind it is ADME, organism-based. Further details: dose 5 mg/kg, route oral. The note with it: in vivo.
Data set [3] in a line: Oral bioavailability in Wistar Han rat at 5 mg/kg. Particulars: in vivo. In kind it is ADME, organism-based.
Data set [4] is described as follows: Half life in Wistar Han rat at 2 mg/kg, iv or 5 mg/kg, po. Type of data set: ADME, organism-based. Particulars: in vivo.
Data set [5] in a line: Clearance in Wistar Han rat at 2 mg/kg, iv or 5 mg/kg, po. In kind it is ADME, organism-based. The note with it: in vivo.
The target of another data set is Histone deacetylase 1 (Homo sapiens, UniProt Q13547).
The target of the next data set is Histone deacetylase 2 (Homo sapiens, UniProt Q92769).
Data set [6] relates to Human immunodeficiency virus. The data set can be described thus: microbe, parasite or virus in culture. Type of data set: functional, organism-based. Particulars: Human immunodeficiency virus 1, 2C4.
Description: Reactivation of HIV latency infected in human 2C4 cells in presence of 0.1 % NHS by luciferase reporter gene assay
Data set [7] relates to Human immunodeficiency virus. The data set can be described thus: microbe, parasite or virus in culture. In kind it is functional, organism-based. Particulars: Human immunodeficiency virus 1, 2C4. This is another data set of the same source.
A short description of data set [8]: AUC in Wistar Han rat at 10 mg/kg, po. In kind it is ADME, organism-based. The note with it: in vivo.
Data set [9] is described as follows: Cmax in Wistar Han rat at 10 mg/kg, po. In kind it is ADME, organism-based. Details: dose 10 mg/kg, route oral. Particulars: in vivo.
Data set [10] in a line: Half life in Wistar Han rat at 2 mg/kg, iv or 10 mg/kg, po. Type of data set: ADME, organism-based. Particulars: in vivo.
A short description of data set [11]: Clearance in Wistar Han rat at 2 mg/kg, iv or 10 mg/kg, po. In kind it is ADME, organism-based. The note with it: in vivo.
Data set [12] in a line: Oral bioavailability in Wistar Han rat at 10 mg/kg. In kind it is ADME, organism-based. Particulars: in vivo.
Data set [13] has as its target T1, Protein deacetylase HDAC6 (Homo sapiens, UniProt Q9UBN7).
T1 sequence (Q9UBN7 whole entry): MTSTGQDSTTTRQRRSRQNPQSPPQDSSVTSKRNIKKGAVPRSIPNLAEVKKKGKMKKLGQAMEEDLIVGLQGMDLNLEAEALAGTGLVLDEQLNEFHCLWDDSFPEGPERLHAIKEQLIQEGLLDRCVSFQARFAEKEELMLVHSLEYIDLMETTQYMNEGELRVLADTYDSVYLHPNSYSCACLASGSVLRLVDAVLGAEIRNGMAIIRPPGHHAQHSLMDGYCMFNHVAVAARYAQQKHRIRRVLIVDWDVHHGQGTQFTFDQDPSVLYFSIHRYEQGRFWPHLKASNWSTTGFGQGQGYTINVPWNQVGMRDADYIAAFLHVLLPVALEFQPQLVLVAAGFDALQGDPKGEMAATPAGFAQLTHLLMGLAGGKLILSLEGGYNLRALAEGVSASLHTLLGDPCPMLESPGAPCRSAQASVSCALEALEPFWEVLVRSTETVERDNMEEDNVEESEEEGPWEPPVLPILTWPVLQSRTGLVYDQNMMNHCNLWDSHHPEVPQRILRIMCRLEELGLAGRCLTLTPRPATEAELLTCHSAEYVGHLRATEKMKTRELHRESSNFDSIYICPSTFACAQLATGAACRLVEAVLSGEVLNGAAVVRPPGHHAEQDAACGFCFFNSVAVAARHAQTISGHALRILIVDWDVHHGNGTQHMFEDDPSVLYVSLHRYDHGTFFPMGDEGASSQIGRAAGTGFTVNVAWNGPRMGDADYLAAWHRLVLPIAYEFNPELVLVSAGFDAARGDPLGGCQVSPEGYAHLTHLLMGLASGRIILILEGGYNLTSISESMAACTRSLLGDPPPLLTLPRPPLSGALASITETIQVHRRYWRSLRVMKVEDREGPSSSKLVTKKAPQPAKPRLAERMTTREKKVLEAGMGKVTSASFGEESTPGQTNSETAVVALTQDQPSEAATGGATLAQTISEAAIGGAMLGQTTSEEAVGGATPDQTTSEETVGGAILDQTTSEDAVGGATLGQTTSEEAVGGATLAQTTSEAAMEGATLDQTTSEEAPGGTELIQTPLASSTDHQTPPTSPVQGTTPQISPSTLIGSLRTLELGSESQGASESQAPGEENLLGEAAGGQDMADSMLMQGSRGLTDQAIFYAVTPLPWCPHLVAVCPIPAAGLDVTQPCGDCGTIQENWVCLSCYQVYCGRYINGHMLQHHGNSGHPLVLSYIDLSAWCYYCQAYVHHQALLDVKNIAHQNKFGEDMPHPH
In kind it is ADME.
Description: Inhibition of HDAC6 (unknown origin)

Data set [14] is described as follows: AUC in Beagle dog at 2 mg/kg, po. In kind it is ADME, organism-based, Canis lupus familiaris. Particulars: in vivo.
Data set [15] can be described thus: Cmax in Beagle dog at 2 mg/kg, po. Type of data set: ADME, organism-based, Canis lupus familiaris. Details: dose 2 mg/kg, route oral. The note with it: in vivo.
Data set [16] in a line: Half life in Beagle dog at 1 mg/kg, iv or 2 mg/kg, po. Particulars: in vivo. Type of data set: ADME, organism-based, Canis lupus familiaris.
Data set [17] can be described thus: Clearance in Beagle dog at 1 mg/kg, iv or 2 mg/kg, po. In kind it is ADME, organism-based, Canis lupus familiaris. Particulars: in vivo.
Data set [18] is described as follows: Oral bioavailability in Beagle dog at 2 mg/kg. Particulars: in vivo. Type of data set: ADME, organism-based, Canis lupus familiaris.

Sequence of Histone deacetylase 2 (Q92769 whole entry): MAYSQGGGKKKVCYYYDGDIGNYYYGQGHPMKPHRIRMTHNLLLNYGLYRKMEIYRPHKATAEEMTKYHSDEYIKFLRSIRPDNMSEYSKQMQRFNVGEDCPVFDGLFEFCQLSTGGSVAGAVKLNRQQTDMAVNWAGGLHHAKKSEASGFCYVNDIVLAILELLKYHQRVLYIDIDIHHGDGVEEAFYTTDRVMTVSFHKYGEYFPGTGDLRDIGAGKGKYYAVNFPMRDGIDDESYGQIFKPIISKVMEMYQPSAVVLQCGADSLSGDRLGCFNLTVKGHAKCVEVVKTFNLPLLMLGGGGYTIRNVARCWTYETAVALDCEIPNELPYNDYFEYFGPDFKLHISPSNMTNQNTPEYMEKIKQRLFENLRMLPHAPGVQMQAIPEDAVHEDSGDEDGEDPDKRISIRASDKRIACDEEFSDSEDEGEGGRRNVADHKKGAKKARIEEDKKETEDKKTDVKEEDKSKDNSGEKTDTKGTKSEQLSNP
Sequence of Histone deacetylase 1 (Q13547 whole entry): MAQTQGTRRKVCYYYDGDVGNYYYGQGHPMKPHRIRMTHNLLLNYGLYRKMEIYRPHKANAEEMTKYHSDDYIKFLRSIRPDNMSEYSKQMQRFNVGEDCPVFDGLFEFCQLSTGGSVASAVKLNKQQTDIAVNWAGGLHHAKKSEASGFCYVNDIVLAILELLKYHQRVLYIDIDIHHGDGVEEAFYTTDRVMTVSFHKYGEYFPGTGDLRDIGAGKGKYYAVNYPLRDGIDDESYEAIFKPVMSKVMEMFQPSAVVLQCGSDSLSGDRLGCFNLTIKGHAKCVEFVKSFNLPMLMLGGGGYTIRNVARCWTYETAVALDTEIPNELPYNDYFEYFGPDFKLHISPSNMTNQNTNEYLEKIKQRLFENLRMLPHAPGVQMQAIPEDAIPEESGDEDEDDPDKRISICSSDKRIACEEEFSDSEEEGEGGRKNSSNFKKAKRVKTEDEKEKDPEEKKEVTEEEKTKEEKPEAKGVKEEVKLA
Description for Histone deacetylase 1: Inhibition of HDAC1 (unknown origin)
Description for Histone deacetylase 2: Inhibition of HDAC2 (unknown origin)

For `CCC(=O)CCCCC[C@H](NC(=O)[C@H]1CC12CCN(CC)CC2)c1ncc(-c2cc3ccccc3nc2OC)[nH]1`, the AUC in [1] is 1.13 µM·h. Further, the peak level in data set [2] (Cmax) was 260 nM. This compound came in with a bioavailability in data set [3] of 5.8%. In data set [4], the half-life is 3 h. Moreover, in [5], the clearance amounted to 7.2 mL/min/kg.

As for `CCC(=O)CCCCC[C@H](NC(=O)[C@H]1CC12CCN(C)CC2)c1ncc(-c2cc3ccccc3nc2OC)o1`, the results for the 50% inhibitory concentration (IC50) at Histone deacetylase 1 and on Histone deacetylase 2 were 1.5 nM and 4.7 nM, respectively. The EC50 in data set [6] stood at 194 nM; in [7], 310 nM. This compound displayed an AUC in [8] of 6.77 µM·h. The Cmax in data set [9] was determined as 700 nM. This compound gave a half-life in data set [10] of 3.2 h. Besides, in data set [11], the clearance stood at 11 mL/min/kg. Also, in data set [12], the bioavailability was 20.6%.

On to `CCC(=O)CCCCC[C@H](NC(=O)[C@H]1CC12CCN(C)CC2)c1ncc(-c2cc3ccccc3nc2OC)[nH]1`, for which the IC50 in [13] is 157 nM. For the same compound, the 50% effective concentration (EC50) in data set [6] was 26 nM; in [7], 83 nM. In addition, the AUC stood at 2.1 µM·h in data set [8] and 1.8 µM·h in data set [14]. For the same compound, the values for the Cmax in data set [9] and in data set [15] were 630 nM and 690 nM, respectively. In addition, the figures for the half-life in data set [10] and in data set [16] were 6.6 h and 7.2 h, respectively. Besides, the figures for the clearance in [11] and in data set [17] were 22 mL/min/kg and 8.5 mL/min/kg, respectively. Moreover, the values for the bioavailability in [12] and in data set [18] were 13% and 22.4%, respectively.
